From US6780616B1, “Antibiotic caprazamycins and process for producing the same” (Zaidan Hojin Biseibutsu Kagaku Kenkyu Kai Corp., priority 1999, dated 2004)
Values after ≈ are worked out from the molar mass of the structure shown.

Legend:
Mycobacterium fortuitum = test: Antibacterial spectrum, serial dilution on 1% glycerin-supplemented nutrient agar; format: cell-based; conditions: Mycolicibacterium fortuitum, read-out: Minimum growth inhibitory concentration
Protocol: (§1) The antibacterial spectrum of caprazamycin A against a variety of microorganisms were measured on a 1% glycerin-supplemented nutrient agar medium by a serial dilution method according to the standard method as provided by Japanese Society of Chemotherapy.
(§2) The antibacterial spectrum of caprazamycin B against a variety of microorganisms were measured on a 1% glycerin-supplemented nutrient agar medium by a serial dilution method according to the standard method as provided by Japanese Society of Chemotherapy.
(§3) The antibacterial spectrum of caprazamycin C against a variety of microorganisms were measured on a 1% glycerin-supplemented nutrient agar medium by a serial dilution method according to the standard method as provided by Japanese Society of Chemotherapy.
(§4) The antibacterial spectrum of caprazamycin E against a variety of microorganisms were measured on a 1% glycerin-supplemented nutrient agar medium by a serial dilution method according to the standard method as provided by Japanese Society of Chemotherapy.
(§5) The antibacterial spectrum of caprazamycin F against a variety of microorganisms were measured on a 1% glycerin-supplemented nutrient agar medium by a serial dilution method according to the standard method as provided by Japanese Society of Chemotherapy.

Mycobacterium phlei = test: as above; format: cell-based; conditions: Mycolicibacterium phlei, read-out: Minimum growth inhibitory concentration
Protocol: as §1, §2, §3, §4, §5

[1] = system: Mycobacterium smegmatis ATCC607 CPM-R (capreomycin-resistant); test: as above; format: cell-based; conditions: Mycolicibacterium smegmatis, ATCC607, read-out: Minimum growth inhibitory concentration
Protocol: as §1, §2, §3, §4, §5

[2] = system: Mycobacterium smegmatis ATCC607 KM-R (kanamycin-resistant); test: as above; format: cell-based; conditions: Mycolicibacterium smegmatis, ATCC607, read-out: Minimum growth inhibitory concentration
Protocol: as §1, §2, §3, §4, §5

[3] = system: Mycobacterium smegmatis ATCC607 PM-R (paromomycin-resistant); test: as above; format: cell-based; conditions: Mycolicibacterium smegmatis, ATCC607, read-out: Minimum growth inhibitory concentration
Protocol: as §1, §2, §3, §4, §5

[4] = system: Mycobacterium smegmatis ATCC607 RFP-R (rifampicin-resistant); test: as above; format: cell-based; conditions: Mycolicibacterium smegmatis, ATCC607, read-out: Minimum growth inhibitory concentration
Protocol: as §1, §2, §3, §4, §5

[5] = system: Mycobacterium smegmatis ATCC607 SM-R (streptomycin-resistant); test: as above; format: cell-based; conditions: Mycolicibacterium smegmatis, ATCC607, read-out: Minimum growth inhibitory concentration
Protocol: as §1, §2, §3, §4, §5

[6] = system: Mycobacterium smegmatis ATCC607 ST-R (streptothricin-resistant); test: as above; format: cell-based; conditions: Mycolicibacterium smegmatis, ATCC607, read-out: Minimum growth inhibitory concentration
Protocol: as §1, §2, §3, §4, §5

[7] = system: Mycobacterium smegmatis ATCC607 VM-R (viomycin-resistant); test: as above; format: cell-based; conditions: Mycolicibacterium smegmatis, ATCC607, read-out: Minimum growth inhibitory concentration
Protocol: as §1, §2, §3, §4, §5

[8] = system: Mycobacterium smegmatis ATCC607; test: as above; format: cell-based; conditions: Mycolicibacterium smegmatis, read-out: Minimum growth inhibitory concentration
Protocol: as §1, §2, §3, §4, §5

[9] = system: Mycobacterium vaccae ATCC15483; test: as above; format: cell-based; conditions: Mycolicibacterium vaccae, read-out: Minimum growth inhibitory concentration
Protocol: as §1, §2, §3, §4, §5

[10] = system: Mycobacterium avium kirchberg NIHJ-1605; test: Antibacterial spectrum, serial dilution in Middlebrook 7H9 liquid medium; format: cell-based; set-up: unit not given here
Protocol: (§6) The antibacterial spectrum of each of caprazamycins A, B, C, E and F against Mycobacterium tuberculosis, and against atypical acid-fast bacteria, Mycobacterium avium kirchberg and Mycobacterium intracellulare, were measured in a Middlebrook 7H9 liquid medium by a serial dilution method. At the same time, antibacterial spectra of rifampicin (RMP) and isonicotinic acid hydrazide (INH) (as comparative drug) against the above-mentioned acid-fast bacteria were measured by the same serial dilution method.

[11] = system: Mycobacterium intracellulare E-1 NIHJ-1618; test: as above; format: cell-based; set-up: unit not given here
Protocol: as §6

[12] = system: Mycobacterium tuberculosis H37Rv NIHJ-1633; test: as above; format: cell-based; set-up: unit not given here
Protocol: as §6

[13] = system: Staphylococcus aureus MS9610 (multiple drug-resistant); test: Antibacterial spectrum, serial dilution on Müller-Hinton agar; format: cell-based; conditions: read-out: Minimum growth inhibitory concentration
[14] = system: Staphylococcus aureus No.5 (methicillin-resistant); test: as above; format: cell-based; conditions: read-out: Minimum growth inhibitory concentration
[15] = system: Staphylococcus aureus No.17 (methicillin-resistant); test: as above; format: cell-based; conditions: read-out: Minimum growth inhibitory concentration
[16] = system: Staphylococcus aureus MS16526 (methicillin-resistant); test: as above; format: cell-based; conditions: read-out: Minimum growth inhibitory concentration
[17] = system: Staphylococcus aureus TY-04282 (methicillin-resistant); test: as above; format: cell-based; conditions: read-out: Minimum growth inhibitory concentration
[18] = system: Bacillus cereus ATCC10702; test: as above; format: cell-based; conditions: read-out: Minimum growth inhibitory concentration
Protocol: (§7) The antibacterial spectrum of caprazamycin B against a variety of microorganisms other than the microorganisms as specified in Table 2 were measured on Müller-Hinton agar medium by a serial dilution method according to the standard method as provided by Japanese Society of Chemotherapy.

[19] = system: Corynebacterium bovis 1810; test: as above; format: cell-based; conditions: read-out: Minimum growth inhibitory concentration
Protocol: as §7

Micrococcus luteus FDA16 = test: as above; format: cell-based; conditions: read-out: Minimum growth inhibitory concentration
Protocol: as §7

[20] = system: Micrococcus luteus PCI1001; test: as above; format: cell-based; conditions: read-out: Minimum growth inhibitory concentration
Protocol: as §7

[21] = system: Staphylococcus aureus FDA209P; test: as above; format: cell-based; conditions: read-out: Minimum growth inhibitory concentration
Protocol: as §7

[22] = system: Staphylococcus aureus Smith; test: as above; format: cell-based; conditions: read-out: Minimum growth inhibitory concentration
Protocol: as §7

Bacillus anthracis = test: microbe, parasite or virus in culture; format: cell-based; conditions: read-out: Minimum growth inhibitory concentration
[23] = system: Bacillus subtilis NRRL B-558; test: Antibacterial spectrum, serial dilution on Müller-Hinton agar; format: cell-based; conditions: NRRLB558, read-out: Minimum growth inhibitory concentration
[24] = system: Bacillus subtilis PCI1219; test: as above; format: cell-based; conditions: read-out: Minimum growth inhibitory concentration
Escherichia coli NIHJ = test: as above; format: cell-based; conditions: read-out: Minimum growth inhibitory concentration
[25] = system: mice (ICR type, 4 weeks-aged, male); test: Toxicity in mice after intravenous administration; format: in vivo; conditions: intravenously, 75 mg/kg
From the text: The dose of a caprazamycin of the general formula (I) or a salt thereof as an active ingredient in the composition of this invention may depend upon the nature of bacterial infections to be treated, a purpose of the therapeutic treatment, degree of the patient's conditions and so on. However, an optimal dose of a caprazamycin can be decided by experts through suitable preliminary tests.

Row | SMILES | MIC (Mycobacterium fortuitum) [µg/mL] | MIC (Mycobacterium phlei) [µg/mL] | MIC [1] [µg/mL] | MIC [2] [µg/mL] | MIC [3] [µg/mL] | MIC [4] [µg/mL] | MIC [5] [µg/mL] | MIC [6] [µg/mL] | MIC [7] [µg/mL] | MIC [8] [µg/mL] | MIC [9] [µg/mL] | Minimum Inhibitory Concentration of Compound tested against Test Bacteria [10] | Minimum Inhibitory Concentration of Compound tested against Test Bacteria [11] | Minimum Inhibitory Concentration of Compound tested against Test Bacteria [12] | further results
1 | CCCCCCCCCCCCCC(CC(=O)OC1CN(C)C(C(OC2OC(CN)C(O)C2O)C2OC(n3ccc(=O)[nH]c3=O)C(O)C2O)C(=O)N(C)C1C(=O)O)OC(=O)CC(C)CC(=O)OC1OC(C)C(OC)C(OC)C1OC (stereo not shown) [Caprazamycin A, caprazamycin A] | 6.25 (≈ 5.45 µM) | 1.56 (≈ 1.36 µM) | 0.78 (≈ 0.68 µM) | 0.78 (≈ 0.68 µM) | 1.56 (≈ 1.36 µM) | 0.78 (≈ 0.68 µM) | 1.56 (≈ 1.36 µM) | 0.78 (≈ 0.68 µM) | 0.78 (≈ 0.68 µM) | 1.56 (≈ 1.36 µM) | 0.2 (≈ 0.174 µM) | <0.025 | 0.78 | 1.56 | 
2 | COC1C(C)OC(OC(=O)CC(C)CC(=O)OC(CCCCCCCCCCC(C)C)CC(=O)OC2CN(C)C(C(OC3OC(CN)C(O)C3O)C3OC(n4ccc(=O)[nH]c4=O)C(O)C3O)C(=O)N(C)C2C(=O)O)C(OC)C1OC (stereo not shown) [Caprazamycin B, caprazamycin B] | 50 (≈ 43.6 µM) | 3.13 (≈ 2.73 µM) | 1.56 (≈ 1.36 µM) | 1.56 (≈ 1.36 µM) | 1.56 (≈ 1.36 µM) | 3.13 (≈ 2.73 µM) | 3.13 (≈ 2.73 µM) | 1.56 (≈ 1.36 µM) | 1.56 (≈ 1.36 µM) | 3.13 (≈ 2.73 µM) | 0.39 (≈ 0.34 µM) | <0.025 | 0.78 | 1.56 | MIC [13]: 3.13 µg/mL (≈ 2.73 µM); MIC [14]: 3.13 µg/mL (≈ 2.73 µM); MIC [15]: 6.25 µg/mL (≈ 5.45 µM); MIC [16]: 3.13 µg/mL (≈ 2.73 µM); MIC [17]: 6.25 µg/mL (≈ 5.45 µM); MIC [18]: 3.13 µg/mL (≈ 2.73 µM); MIC [19]: 3.13 µg/mL (≈ 2.73 µM); MIC (Micrococcus luteus FDA16): 3.13 µg/mL (≈ 2.73 µM); MIC [20]: 3.13 µg/mL (≈ 2.73 µM); MIC [21]: 1.56 µg/mL (≈ 1.36 µM); MIC [22]: 3.13 µg/mL (≈ 2.73 µM); MIC (Bacillus anthracis): 0.78 µg/mL (≈ 0.68 µM); MIC [23]: 12.5 µg/mL (≈ 10.9 µM); MIC [24]: 6.25 µg/mL (≈ 5.45 µM); MIC (Escherichia coli NIHJ): 100 µg/mL (≈ 87.2 µM); Toxicity [25]: did not exhibit any toxicity
3 | CCCCCCCCCCCCC(CC(=O)OC1CN(C)C(C(OC2OC(CN)C(O)C2O)C2OC(n3ccc(=O)[nH]c3=O)C(O)C2O)C(=O)N(C)C1C(=O)O)OC(=O)CC(C)CC(=O)OC1OC(C)C(OC)C(OC)C1OC (stereo not shown) [Caprazamycin C, caprazamycin C] | 12.5 (≈ 11 µM) | 1.56 (≈ 1.38 µM) | 1.56 (≈ 1.38 µM) | 0.78 (≈ 0.689 µM) | 1.56 (≈ 1.38 µM) | 1.56 (≈ 1.38 µM) | 1.56 (≈ 1.38 µM) | 1.56 (≈ 1.38 µM) | 1.56 (≈ 1.38 µM) | 1.56 (≈ 1.38 µM) | 0.39 (≈ 0.344 µM) | <0.025 | 0.78 | 0.78 | 
4 | CCCCCCCCCCCC(CC(=O)OC1CN(C)C(C(OC2OC(CN)C(O)C2O)C2OC(n3ccc(=O)[nH]c3=O)C(O)C2O)C(=O)N(C)C1C(=O)O)OC(=O)CC(C)CC(=O)OC1OC(C)C(OC)C(OC)C1OC (stereo not shown) [Caprazamycin E, caprazamycin E] | 12.5 (≈ 11.2 µM) | 1.56 (≈ 1.4 µM) | 0.39 (≈ 0.349 µM) | 0.78 (≈ 0.698 µM) | 1.56 (≈ 1.4 µM) | 0.78 (≈ 0.698 µM) | 1.56 (≈ 1.4 µM) | 0.78 (≈ 0.698 µM) | 0.39 (≈ 0.349 µM) | 1.56 (≈ 1.4 µM) | 0.39 (≈ 0.349 µM) | <0.025 | 0.78 | 0.78 | 
5 | COC1C(C)OC(OC(=O)CC(C)CC(=O)OC(CCCCCCCCC(C)C)CC(=O)OC2CN(C)C(C(OC3OC(CN)C(O)C3O)C3OC(n4ccc(=O)[nH]c4=O)C(O)C3O)C(=O)N(C)C2C(=O)O)C(OC)C1OC (stereo not shown) [Caprazamycin F, caprazamycin F] | 12.5 (≈ 11.2 µM) | 1.56 (≈ 1.4 µM) | 0.78 (≈ 0.698 µM) | 0.78 (≈ 0.698 µM) | 0.78 (≈ 0.698 µM) | 0.78 (≈ 0.698 µM) | 1.56 (≈ 1.4 µM) | 0.78 (≈ 0.698 µM) | 1.56 (≈ 1.4 µM) | 1.56 (≈ 1.4 µM) | 0.78 (≈ 0.698 µM) | 0.1 | 1.56 |  | 
